The assay addresses Polθ theta (1-899) (hPolQ) (Homo sapiens (Human), UniProt O75417). As to the kind of experiment: Biological Assay 1: Polθ ATPase activity, NADH oxidation-coupled enzymatic assay (10 nM enzyme, 30 min). Format: biochemical. The following applies: Polθ (1-899) 10 nM, 100 μM ATP, 300 nM dT50 ssDNA; Examples 1 to 268; read-out: ATPase NADH coupling:Standard Screening:hPolQ IC50. Put shortly: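 Polθ (1-899) at 10 nM was preincubated with compound for 15 min at room temperature in 20 mM Tris pH 7.80, 80 mM KCl, 10 mM MgCl2. An equal volume of 100 μM ATP, 300 nM dT50 ssDNA and a PK/LDH–NADH coupling system was then added. A340 was read each minute for 30 min. IC50 came from rate slopes over 10-point series with a four-parameter fit.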

Consider 28 molecules from US20250325552A1, “SUBSTITUTED THIADIAZOLYL DERIVATIVES AS DNA POLYMERASE THETA INHIBITORS” (IDEAYA Biosciences, Inc., priority 2020, published 2025).

Sequence of Polθ theta (1-899) (hPolQ) (O75417 1-899): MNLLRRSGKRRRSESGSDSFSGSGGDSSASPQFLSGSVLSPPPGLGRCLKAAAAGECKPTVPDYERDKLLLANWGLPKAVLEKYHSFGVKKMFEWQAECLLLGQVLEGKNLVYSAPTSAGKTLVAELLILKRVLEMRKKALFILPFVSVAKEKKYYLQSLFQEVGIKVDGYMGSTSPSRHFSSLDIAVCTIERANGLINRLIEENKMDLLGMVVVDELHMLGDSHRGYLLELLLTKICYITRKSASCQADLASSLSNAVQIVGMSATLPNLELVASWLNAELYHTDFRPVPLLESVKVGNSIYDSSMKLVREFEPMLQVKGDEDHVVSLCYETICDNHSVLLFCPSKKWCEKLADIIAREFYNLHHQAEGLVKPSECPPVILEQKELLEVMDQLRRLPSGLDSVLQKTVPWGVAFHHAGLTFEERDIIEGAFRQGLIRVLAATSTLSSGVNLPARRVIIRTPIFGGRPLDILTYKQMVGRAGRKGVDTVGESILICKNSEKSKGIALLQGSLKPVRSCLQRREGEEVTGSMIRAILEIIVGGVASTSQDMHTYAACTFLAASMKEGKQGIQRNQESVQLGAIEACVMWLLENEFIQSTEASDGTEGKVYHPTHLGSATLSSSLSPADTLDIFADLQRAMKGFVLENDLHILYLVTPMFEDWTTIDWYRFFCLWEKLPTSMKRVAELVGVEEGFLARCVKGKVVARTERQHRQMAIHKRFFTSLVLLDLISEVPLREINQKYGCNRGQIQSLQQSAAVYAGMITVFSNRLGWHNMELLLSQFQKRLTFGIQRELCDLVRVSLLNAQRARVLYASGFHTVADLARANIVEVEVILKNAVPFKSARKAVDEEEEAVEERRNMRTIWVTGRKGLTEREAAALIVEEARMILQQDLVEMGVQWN

In general, IC50 refers to the concentration at which inhibition is half-maximal. With `COc1cnc(Cl)cc1-c1cc(C)ncc1C(=O)Nc1nnc(OC[C@H]2CC[C@@](C)(O)CC2)s1` [Example 215, 2′-chloro-N-(5-(((1s,4s)-4-hydroxy-4-methylcyclohexyl)methoxy)-1,3,4-thiadiazol-2-yl)-5′-methoxy-6-methyl-(4,4′-bipyridine)-3-carboxamide], the IC50 is no more than 200 nM.

With `COCc1cc(-c2cc(Cl)ncc2OC)c(C(=O)Nc2nnc(OC[C@@H]3COCCO3)s2)cn1` [Example 216, (S)—N-(5-((1,4-dioxan-2-yl)methoxy)-1,3,4-thiadiazol-2-yl)-2′-chloro-5′-methoxy-6-(methoxymethyl)-(4,4′-bipyridine)-3-carboxamide], the IC50 was no more than 200 nM. Under `COc1cnc(C)c(F)c1-c1cc(C)ncc1C(=O)Nc1nnc(OCC23CCC(O)(CC2)C3)s1` [Example 217, 3′-fluoro-N-(5-((4-hydroxybicyclo(2.2.1)heptan-1-yl)methoxy)-1,3,4-thiadiazol-2-yl)-5′-methoxy-2′,6-dimethyl-(4,4′-bipyridine)-3-carboxamide] stands no more than 200 nM; under `COc1cnc(Cl)cc1-c1cc(C)ncc1C(=O)Nc1nnc(OCC23CCC(O)(CC2)C3)s1` [Example 218, 2′-chloro-N-(5-((4-hydroxybicyclo(2.2.1)heptan-1-yl)methoxy)-1,3,4-thiadiazol-2-yl)-5′-methoxy-6-methyl-(4,4′-bipyridine)-3-carboxamide], no more than 200 nM; under `COc1cnc(C)c(F)c1-c1cc(C)ncc1C(=O)Nc1nnc(OCC23CCC(O)(CC2)CC3)s1` [Example 219, 3′-fluoro-N-(5-((4-hydroxybicyclo(2.2.2)octan-1-yl)methoxy)-1,3,4-thiadiazol-2-yl)-5′-methoxy-2′,6-dimethyl-(4,4′-bipyridine)-3-carboxamide], no more than 200 nM. Under `COc1cnc(Cl)cc1-c1cc(C)ncc1C(=O)Nc1nnc(OCC2COC3(CCC3)C2)s1` (stereo not shown) [Example 224, N-(5-((5-oxaspiro(3.4)octan-7-yl)methoxy)-1,3,4-thiadiazol-2-yl)-2′-chloro-5′-methoxy-6-methyl-(4,4′-bipyridine)-3-carboxamide] stands no more than 200 nM. To `COc1cnc(Cl)cc1-c1cc(C)ncc1C(=O)Nc1nnc(OCC2COC3(COC3)C2)s1` (stereo not shown) [Example 225, N-(5-((2,5-dioxaspiro(3.4)octan-7-yl)methoxy)-1,3,4-thiadiazol-2-yl)-2′-chloro-5′-methoxy-6-methyl-(4,4′-bipyridine)-3-carboxamide] belongs no more than 200 nM; to `COc1cnc(Cl)cc1-c1cc(C)ncc1C(=O)Nc1nnc(OCC2COC(C)(C)CO2)s1` (stereo not shown) [Example 228, 2′-chloro-N-(5-((5,5-dimethyl-1,4-dioxan-2-yl)methoxy)-1,3,4-thiadiazol-2-yl)-5′-methoxy-6-methyl-(4,4′-bipyridine)-3-carboxamide], no more than 200 nM; to `COc1cnc(Cl)cc1-c1cc(C)ncc1C(=O)Nc1nnc(OCC23COC(C2)C3)s1` [Example 229, N-(5-((2-oxabicyclo(2.1.1)hexan-4-yl)methoxy)-1,3,4-thiadiazol-2-yl)-2′-chloro-5′-methoxy-6-methyl-(4,4′-bipyridine)-3-carboxamide], no more than 200 nM. Consider `COc1cnc(Cl)cc1-c1cc(COC2CC2)ncc1C(=O)Nc1nnc(OC[C@H]2CC[C@H](O)CC2)s1` [Example 232, 2′-chloro-6-(cyclopropoxymethyl)-N-(5-(((1r,4r)-4-hydroxycyclohexyl)methoxy)-1,3,4-thiadiazol-2-yl)-5′-methoxy-(4,4′-bipyridine)-3-carboxamide], for which the IC50 was no more than 200 nM. To `Cc1cc(-c2cc(Cl)ncc2OC(F)F)c(C(=O)Nc2nnc(OC[C@@H]3COCCO3)s2)cn1` [Example 233, (S)—N-(5-((1,4-dioxan-2-yl)methoxy)-1,3,4-thiadiazol-2-yl)-2′-chloro-5′-(difluoromethoxy)-6-methyl-(4,4′-bipyridine)-3-carboxamide] belongs no more than 200 nM. To `Cc1cc(-c2cc(Cl)ncc2OC(F)F)c(C(=O)Nc2nnc(OC[C@H]3COCCO3)s2)cn1` [Example 234, (R)—N-(5-((1,4-dioxan-2-yl)methoxy)-1,3,4-thiadiazol-2-yl)-2′-chloro-5′-(difluoromethoxy)-6-methyl-(4,4′-bipyridine)-3-carboxamide] belongs no more than 200 nM. To `COc1cnc(Br)cc1-c1cc(C)ncc1C(=O)Nc1nnc(OC[C@@H]2COCCO2)s1` [Example 235, (S)—N-(5-((1,4-dioxan-2-yl)methoxy)-1,3,4-thiadiazol-2-yl)-2′-bromo-5′-methoxy-6-methyl-(4,4′-bipyridine)-3-carboxamide] belongs no more than 200 nM; to `COc1cnc(Br)cc1-c1cc(C)ncc1C(=O)Nc1nnc(OC[C@H]2COCCO2)s1` [Example 236, (R)—N-(5-((1,4-dioxan-2-yl)methoxy)-1,3,4-thiadiazol-2-yl)-2′-bromo-5′-methoxy-6-methyl-(4,4′-bipyridine)-3-carboxamide], no more than 200 nM. `COc1cnc(Cl)c(F)c1-c1cc(C)ncc1C(=O)Nc1nnc(OC[C@@H]2COCCO2)s1` [Example 239, N-(5-(((S)-1,4-dioxan-2-yl)methoxy)-1,3,4-thiadiazol-2-yl)-2′-chloro-3′-fluoro-5′-methoxy-6-methyl-(4,4′-bipyridine)-3-carboxamide]: the IC50 was no more than 200 nM. With `COc1cnc(Cl)c(F)c1-c1cc(C)ncc1C(=O)Nc1nnc(OC[C@H]2COCCO2)s1` [Example 240, N-(5-(((R)-1,4-dioxan-2-yl)methoxy)-1,3,4-thiadiazol-2-yl)-2′-chloro-3′-fluoro-5′-methoxy-6-methyl-(4,4′-bipyridine)-3-carboxamide], the IC50 is no more than 200 nM. To `COc1cnc(C)c(F)c1-c1cc(C)ncc1C(=O)Nc1nnc(OC[C@H]2COCCO2)s1` [Example 242, N-(5-(((R)-1,4-dioxan-2-yl)methoxy)-1,3,4-thiadiazol-2-yl)-3′-fluoro-5′-methoxy-2′,6-dimethyl-(4,4′-bipyridine)-3-carboxamide] belongs no more than 200 nM.

As for `Cc1cc(-c2cc(Cl)ncc2OC(F)F)c(C(=O)Nc2nnc(OC[C@H]3CC[C@H](O)CC3)s2)cn1` [Example 243, 2′-chloro-5′-(difluoromethoxy)-N-(5-(((1r,4r)-4-hydroxycyclohexyl)methoxy)-1,3,4-thiadiazol-2-yl)-6-methyl-(4,4′-bipyridine)-3-carboxamide], the IC50 is no more than 200 nM.

In the case of `COc1cnc(Cl)cc1-c1cc(C)ncc1C(=O)Nc1nnc(OCC2COC(CO)CO2)s1` (stereo not shown) [Example 246, 2′-chloro-N-(5-((5-(hydroxymethyl)-1,4-dioxan-2-yl)methoxy)-1,3,4-thiadiazol-2-yl)-5′-methoxy-6-methyl-(4,4′-bipyridine)-3-carboxamide], the IC50 was no more than 200 nM. Under `COc1cnc(Br)cc1-c1cc(C)ncc1C(=O)Nc1nnc(OC[C@H]2CC[C@H](O)CC2)s1` [Example 247, 2′-bromo-N-(5-(((1r,4r)-4-hydroxycyclohexyl)methoxy)-1,3,4-thiadiazol-2-yl)-5′-methoxy-6-methyl-(4,4′-bipyridine)-3-carboxamide] stands no more than 200 nM; under `COc1cnc(Cl)c(F)c1-c1cc(C)ncc1C(=O)Nc1nnc(OC[C@H]2CC[C@H](O)CC2)s1` [Example 248, 2′-chloro-3′-fluoro-N-(5-(((1r,4r)-4-hydroxycyclohexyl)methoxy)-1,3,4-thiadiazol-2-yl)-5′-methoxy-6-methyl-(4,4′-bipyridine)-3-carboxamide], no more than 200 nM; under `COc1cnc(C)c(F)c1-c1cc(C)ncc1C(=O)Nc1nnc(OC[C@H]2CCOC2)s1` [Example 249, 3′-fluoro-5′-methoxy-2′,6-dimethyl-N-(5-(((S)-tetrahydrofuran-3-yl)methoxy)-1,3,4-thiadiazol-2-yl)-(4,4′-bipyridine)-3-carboxamide], no more than 200 nM. To `COc1cnc(C)c(F)c1-c1cc(C)ncc1C(=O)Nc1nnc(OC[C@@H]2CCOC2)s1` [Example 250, 3′-fluoro-5′-methoxy-2′,6-dimethyl-N-(5-(((R)-tetrahydrofuran-3-yl)methoxy)-1,3,4-thiadiazol-2-yl)-(4,4′-bipyridine)-3-carboxamide] belongs no more than 200 nM; to `COc1cnc(Cl)cc1-c1cc(C)ncc1C(=O)Nc1nnc(OCC2CCCC2O)s1` (stereo not shown) [Example 261, 2′-chloro-N-(5-((2-hydroxycyclopentyl)methoxy)-1,3,4-thiadiazol-2-yl)-5′-methoxy-6-methyl-(4,4′-bipyridine)-3-carboxamide], no more than 200 nM; to `COc1cnc(Cl)cc1-c1cc(C)ncc1C(=O)Nc1nnc(OCC2COC(C)C2)s1` (stereo not shown) [Example 262, 2′-chloro-5′-methoxy-6-methyl-N-(5-((5-methyltetrahydrofuran-3-yl)methoxy)-1,3,4-thiadiazol-2-yl)-(4,4′-bipyridine)-3-carboxamide], no more than 200 nM. Regarding `COc1ccccc1-c1cnccc1C(=O)Nc1nnc(OCC2CCOCC2)s1` [compound 1, 3-(2-methoxyphenyl)-N-(5-((tetrahydro-2H-pyran-4-yl)methoxy)-1,3,4-thiadiazol-2-yl)isonicotinamide], the IC50 was 200 to 500 nM. `COc1ccccc1-c1cnccc1C(=O)Nc1nnc(OCC2CCCCO2)s1` (stereo not shown) [compound 2, 3-(2-methoxyphenyl)-N-(5-((tetrahydro-2H-pyran-2-yl)methoxy)-1,3,4-thiadiazol-2-yl)isonicotinamide]: the half-inhibitory concentration (IC50) was in the range of 200 to 500 nM. Under `COc1ccccc1-c1cnccc1C(=O)Nc1nnc(OCC2CCCc3[nH]ncc32)s1` (stereo not shown) [compound 3, 3-(2-methoxyphenyl)-N-(5-(4,5,6,7-tetrahydro-1H-indazol-4-ylmethoxy)-1,3,4-thiadiazol-2-yl)pyridine-4-carboxamide] stands no more than 200 nM.
